Patent publication US12414990B2, “Use of HLA-A*11:01-restricted hepatitis B virus (HBV) peptides for identifying HBV-specific CD8+ T cells” (AGENCY FOR SCIENCE, TECHNOLOGY AND RESEARCH, priority 2019, dated 2025)
Entries after “also recorded” stand apart in the source; their conditions may differ.

Legend:
[1] = system: HLA-A*11:01-restricted antigen-specific CD8+ T cells in patient's PBMC; experiment: Highly multiplexed combinatorial pMHC tetramer staining with mass cytometry (epitope mapping, frequency of antigen-specific CD8+ T cells); conditions: for detection / frequency of epitope-specific CD8+ T cells across patient groups: ex vivo PBMC, groups IT, IA, InA, R, HD, CB
[2] = system: antigen-specific CD8+ T cells; experiment: High-dimensional phenotypic profiling of antigen-specific CD8+ T cells (t-SNE, Phenograph, One-SENSE, Scorpius); type: cell-based, human
Description: Validated antigen-specific CD8+ T cells were exported individually from each donor for dimensionality reduction analysis. Detailed methodology for t-SNE and One-SENSE can be found elsewhere. Briefly, t-SNE and One-SENSE were performed using custom R scripts based on “flowCore” and “Rtsne” packages downloaded from The Comprehensive R Archive Network (CRAN). All data were transformed using the “logicleTransform” function and w=0.25, t=16409, m=4.5, a=0 as input parameters to roughly match scaling historically used in FlowJo. Cellular markers analyzed by t-SNE and One-SENSE were indicated (table S2). For One-SENSE, cellular markers in each T cell category (“Differentiation+TNFR”, “Exhaustion” and “Trafficking”) were subjectively assigned for categorical analysis. Aligned heatplots represent the distribution of marker positive cells in percentage on each “bin” on the axis (category) constructed by cells residing in small ranges of values. Positive population of markers was manually defined and markers of the same category were combined for each dimension using 250 bins.
Logistic regression was performed using the drc R package (v 3.0.1) using a 3-parameters logistic model.

[3] = system: virus-specific CD8+ T cells in patient PBMC; experiment: In vitro virus-specific CD8+ T cell expansion by peptide stimulation with intracellular cytokine staining; type: cell-based, human
Description: PBMC from patients were thawed and recovered, and then resuspend in AIM-V medium (with 2% human AB serum, 1% penicillin/streptomycin/L-glutamine, 1% 1M HEPES) (Gibco, Invitrogen) with 20 IU/ml of recombinant human IL-2 (R&D). Cells were pulsed with corresponded HBV or control peptides at 1 μM per 1 million cells in 200 μl medium in 96-well round-bottom tissue culture plate and cultured for 10 days at 37° C. Half of the medium was replaced as supplementary every three days without any peptide. […] After incubation, cells were collected and then stained with the 50-plex pMHC tetramers (table S1) and surface antibodies. Intracellular cytokine staining was performed on the second day as indicated in (table S2). All staining, cellular barcoding, and CD8 T cell enrichment were done in the same manner as ex vivo staining described above.

[4] = Inactive Carrier (InA) CHB patients, patients with detected tetramer+ CD8+ T cells (frequency > 0.002%) / patients in the group, per epitope cluster
[5] = patients with detected epitope-specific CD8+ T cells / patients tested, Inactive Carrier (InA) group, Freq > 0.002%
[6] = Immune Active (IA) patients, donors with tetramer+ CD8+ T cell frequency > 0.002% / donors tested
[7] = Immune Tolerant (IT) patients, donors with tetramer+ CD8+ T cell frequency > 0.002% / donors tested
[8] = Inactive Carrier (InA) patients, donors with tetramer+ CD8+ T cell frequency > 0.002% / donors tested
[9] = acute resolved (R) patients, donors with tetramer+ CD8+ T cell frequency > 0.002% / donors tested
[10] = Acute resolved (R) patients, patients with detected tetramer+ CD8+ T cells (frequency > 0.002%) / patients in the group, per epitope cluster
[11] = Immune Active (IA) CHB patients, patients with detected tetramer+ CD8+ T cells (frequency > 0.002%) / patients in the group, per epitope cluster
[12] = Immune Tolerant (IT) CHB patients, patients with detected tetramer+ CD8+ T cells (frequency > 0.002%) / patients in the group, per epitope cluster
[13] = patients with detected epitope-specific CD8+ T cells / patients tested, acute resolved (R) group, Freq > 0.002%
[14] = patients with detected epitope-specific CD8+ T cells / patients tested, Immune Active (IA) group, Freq > 0.002%
[15] = patients with detected epitope-specific CD8+ T cells / patients tested, Immune Tolerant (IT) group, Freq > 0.002%

AGFFLLTK
Hits (Freq > 0.002%) InA [1, 4]: 1/13

SVLGPISGHVLK
Hits (Freq > 0.002%) InA [1, 5]: 2/13

AVVRRRCRSPR
Hits (Freq > 0.002%) IA [1, 6]: 6/12 | Hits (Freq > 0.002%) IT [1, 7]: 3/8 | Hits (Freq > 0.002%) InA [1, 8]: 2/13 | Hits (Freq > 0.002%) R [1, 9]: 1/12

LVVDFSQFSR (Hepatitis B virus) [HBV-P-387]
numbers of co-expressed inhibitory receptors on epitope-specific CD8+ T cells ([2]; Boolean strategy, across patient groups): no differences in terms of the numbers accumulated on the cells across patient groups | proportion of cells with C13-like phenotype (CXCR3+CD27hiCD127hi) within HBVpol387-specific CD8+ T cells ([2]; IT patients): ~80% | expansion of antigen-specific CD8+ T cells upon peptide stimulation ([3]; 10 days in vitro culture, 1 μM peptide): less expanded in IT patients | functional subset of virus-specific CD8+ T cells after antigen recall (One-SENSE) ([3]; 10 days in vitro peptide stimulation, restimulation 7 hours): multi-functional subset | detection / frequency of epitope-specific CD8+ T cells across patient groups [1]: highest frequencies observed; also recorded: relatively high frequency in CHB and also in half of the HD tested

LSLGIHLNPNK
Hits (Freq > 0.002%) IA [1, 6]: 3/12 | Hits (Freq > 0.002%) InA [1, 8]: 1/13

QTSERHGDK
Hits (Freq > 0.002%) R [1, 10]: 1/12 | Hits (Freq > 0.002%) InA [1, 4]: 1/13

CSCPTVQASK
Hits (Freq > 0.002%) InA [1, 5]: 2/13

NLNVSIPWTHK
Hits (Freq > 0.002%) R [1, 10]: 1/12 | Hits (Freq > 0.002%) IA [1, 11]: 8/12 | Hits (Freq > 0.002%) IT [1, 12]: 4/8 | Hits (Freq > 0.002%) InA [1, 4]: 3/13

LSYLHFRK
Hits (Freq > 0.002%) R [1, 10]: 2/12 | Hits (Freq > 0.002%) IA [1, 11]: 4/12 | Hits (Freq > 0.002%) IT [1, 12]: 3/8 | Hits (Freq > 0.002%) InA [1, 4]: 1/13

SSARSQSER
Hits (Freq > 0.002%) InA [1, 8]: 1/13

GVWIRTPPAYR
Hits (Freq > 0.002%) InA [1, 5]: 1/13

LVVDFSQFSR
Hits (Freq > 0.002%) IA [1, 6]: 9/12 | Hits (Freq > 0.002%) IT [1, 7]: 5/8 | Hits (Freq > 0.002%) InA [1, 8]: 9/13 | Hits (Freq > 0.002%) R [1, 9]: 9/12

TVNAHQVLPK
Hits (Freq > 0.002%) IA [1, 6]: 3/13 | Hits (Freq > 0.002%) IT [1, 7]: 1/12 | Hits (Freq > 0.002%) R [1, 9]: 2/12

SSAGPCALR
Hits (Freq > 0.002%) InA [1, 8]: 2/13

STISSILSK
Hits (Freq > 0.002%) IA [1, 11]: 1/12 | Hits (Freq > 0.002%) InA [1, 4]: 1/13

TVRAFSRAYHHRINR
Hits (Freq > 0.002%) R [1, 13]: 1/12

LQAGFFLLTK
Hits (Freq > 0.002%) IA [1, 11]: 1/12

IVQKIKMCFRK
Hits (Freq > 0.002%) IA [1, 6]: 1/12 | Hits (Freq > 0.002%) IT [1, 7]: 1/8 | Hits (Freq > 0.002%) R [1, 9]: 2/12

TTSTGPCK
Hits (Freq > 0.002%) R [1, 10]: 1/12 | Hits (Freq > 0.002%) IA [1, 11]: 1/12

PSFPHIHLK
Hits (Freq > 0.002%) R [1, 10]: 1/12 | Hits (Freq > 0.002%) IT [1, 12]: 1/8

MATYGWNLVK
Hits (Freq > 0.002%) IA [1, 14]: 1/12 | Hits (Freq > 0.002%) InA [1, 5]: 1/13

SFSFGGFTFK
Hits (Freq > 0.002%) IA [1, 14]: 2/12 | Hits (Freq > 0.002%) InA [1, 5]: 2/13 | Hits (Freq > 0.002%) R [1, 13]: 1/12

KTYGRKLHLY
Hits (Freq > 0.002%) IT [1, 7]: 1/8 | Average of hits (%) IT ([1]; Immune Tolerant (IT) patients, mean frequency of antigen-specific CD8+ T cells among hits): 0.002007%

LVFQTSER
Hits (Freq > 0.002%) R [1, 10]: 1/12 | Hits (Freq > 0.002%) InA [1, 4]: 1/13

STLPETAVVRR
Hits (Freq > 0.002%) IA [1, 6]: 4/12 | Hits (Freq > 0.002%) InA [1, 8]: 7/13 | Hits (Freq > 0.002%) R [1, 9]: 9/12

RSQSPRRRRSK
Hits (Freq > 0.002%) IT [1, 15]: 8/8 | Hits (Freq > 0.002%) InA [1, 5]: 6/13 | Hits (Freq > 0.002%) R [1, 13]: 6/12

MSMTDLEAYFK
Hits (Freq > 0.002%) IA [1, 14]: 1/12 | Hits (Freq > 0.002%) R [1, 13]: 1/12

TSGSPIIDK
Hits (Freq > 0.002%) IT [1, 15]: 1/8

STFHQALLDPR
Hits (Freq > 0.002%) IA [1, 11]: 1/12

MLLYKTYGRK
Hits (Freq > 0.002%) InA [1, 8]: 1/13

LTINENRRLK
Hits (Freq > 0.002%) IA [1, 11]: 1/12

SSCSSCPLSK
Hits (Freq > 0.002%) IT [1, 15]: 6/8 | Hits (Freq > 0.002%) R [1, 13]: 8/12

GSTHVSWPK
Hits (Freq > 0.002%) IA [1, 6]: 1/12 | Hits (Freq > 0.002%) IT [1, 7]: 1/8

ATVQGQNLK
Hits (Freq > 0.002%) IA [1, 14]: 2/12 | Hits (Freq > 0.002%) IT [1, 15]: 3/8 | Hits (Freq > 0.002%) InA [1, 5]: 9/13 | Hits (Freq > 0.002%) R [1, 13]: 4/12

HBV-C-195v2: HBV core epitope, cluster 283, 1 unique peptide (RSQSPRRRRSK; Hepatitis B virus)
phenotype of tetramer-stained epitope-specific CD8+ T cells ([2]; ex vivo): mostly naïve-like phenotype | detection / frequency of epitope-specific CD8+ T cells across patient groups [1]: highest frequencies observed

SQIGAGVYK
Hits (Freq > 0.002%) IA [1, 14]: 3/12 | Hits (Freq > 0.002%) IT [1, 15]: 1/8 | Hits (Freq > 0.002%) InA [1, 5]: 2/13 | Hits (Freq > 0.002%) R [1, 13]: 1/12

TTKRDLGMSK
Hits (Freq > 0.002%) IA [1, 14]: 2/12 | Hits (Freq > 0.002%) IT [1, 15]: 1/8

KTAYSHLSTSK
Hits (Freq > 0.002%) R [1, 10]: 7/12 | Hits (Freq > 0.002%) IT [1, 12]: 8/8

STNRQSGRK
Hits (Freq > 0.002%) R [1, 10]: 1/12 | Hits (Freq > 0.002%) IA [1, 11]: 7/12 | Hits (Freq > 0.002%) IT [1, 12]: 5/8 | Hits (Freq > 0.002%) InA [1, 4]: 4/13

TVNETRRLK
Hits (Freq > 0.002%) IA [1, 11]: 2/12 | Hits (Freq > 0.002%) IT [1, 12]: 1/8 | Hits (Freq > 0.002%) InA [1, 4]: 2/13

VTKYLPLDK
Hits (Freq > 0.002%) R [1, 10]: 2/12 | Hits (Freq > 0.002%) IT [1, 12]: 1/8 | Hits (Freq > 0.002%) InA [1, 4]: 3/13
